Test results published in the NIST ThermoML archive (doi:10.1016/j.fluid.2007.12.007).

Assay: xn = mol fraction of the nth substance listed
Conditions: 101 kPa, Liquid

CC(O)CCO (stereo unspecified) [1,3-butanediol] + NC=O
Conditions	speed of sound [m/s]	viscosity [mPa·s]
293.15 K, x2 = 0.1061	1539	99.92
293.15 K, x2 = 0.2004	1536.3	78.22
293.15 K, x2 = 0.3068	1537.2	59.74
293.15 K, x2 = 0.4026	1538.5	46.12
293.15 K, x2 = 0.5033	1543.7	34.62
293.15 K, x2 = 0.6046	1550.4	25.02
293.15 K, x2 = 0.7013	1561.2	17.54
293.15 K, x2 = 0.8073	1577.3	10.47
293.15 K, x2 = 0.9058	1596.6	6.546
298.15 K, x2 = 0.1061	1521.7	74.72
298.15 K, x2 = 0.2004	1518.2	57.5
298.15 K, x2 = 0.3068	1518.3	43.1
298.15 K, x2 = 0.4026	1519.5	32.2
298.15 K, x2 = 0.5033	1524.6	23.74
298.15 K, x2 = 0.6046	1531.3	17
298.15 K, x2 = 0.7013	1542.5	12
298.15 K, x2 = 0.8073	1559.5	7.526
298.15 K, x2 = 0.9058	1580.2	5.001
303.15 K, x2 = 0.1061	1503.9	53.07
303.15 K, x2 = 0.2004	1499.8	40.31
303.15 K, x2 = 0.3068	1499.9	28.9
303.15 K, x2 = 0.4026	1501.1	21.09
303.15 K, x2 = 0.5033	1506.5	15.04
303.15 K, x2 = 0.6046	1513.8	10.33
303.15 K, x2 = 0.7013	1525.7	7.023
303.15 K, x2 = 0.8073	1543.8	4.543
303.15 K, x2 = 0.9058	1566.3	3.526
308.15 K, x2 = 0.1061	1488.7	40.36
308.15 K, x2 = 0.2004	1484.2	30.96
308.15 K, x2 = 0.3068	1483.6	21.98
308.15 K, x2 = 0.4026	1484.8	15.66
308.15 K, x2 = 0.5033	1490.1	11.25
308.15 K, x2 = 0.6046	1497.6	7.455
308.15 K, x2 = 0.7013	1509.9	5.329
308.15 K, x2 = 0.8073	1528.7	3.578
308.15 K, x2 = 0.9058	1552.5	2.702
313.15 K, x2 = 0.1061	1475.5	31.06
313.15 K, x2 = 0.2004	1470.2	24.23
313.15 K, x2 = 0.3068	1468.8	17.48
313.15 K, x2 = 0.4026	1469.6	12.14
313.15 K, x2 = 0.5033	1474.7	8.414
313.15 K, x2 = 0.6046	1482.1	6.181
313.15 K, x2 = 0.7013	1494.6	4.545
313.15 K, x2 = 0.8073	1513.9	3.229
313.15 K, x2 = 0.9058	1538.9	2.626
318.15 K, x2 = 0.1061	1463.3	24.04
318.15 K, x2 = 0.2004	1457	18.62
318.15 K, x2 = 0.3068	1454.8	13.82
318.15 K, x2 = 0.4026	1455.1	9.999
318.15 K, x2 = 0.5033	1459.9	6.803
318.15 K, x2 = 0.6046	1467.1	4.697
318.15 K, x2 = 0.7013	1479.7	3.299
318.15 K, x2 = 0.8073	1499.4	2.478
318.15 K, x2 = 0.9058	1525.5	2.257

NC=O [formamide] + CCC(C)O
Conditions	speed of sound [m/s]	viscosity [mPa·s]
293.15 K, x1 = 0.1043	1264.1	4.14
293.15 K, x1 = 0.2043	1295.8	4.08
293.15 K, x1 = 0.3056	1329.1	4.046
293.15 K, x1 = 0.4083	1364.5	4.041
293.15 K, x1 = 0.5093	1401.3	4.026
293.15 K, x1 = 0.6063	1438.8	3.99
293.15 K, x1 = 0.7068	1480.1	3.929
293.15 K, x1 = 0.8042	1522.5	3.859
293.15 K, x1 = 0.9024	1568	3.77
298.15 K, x1 = 0.1043	1243.5	3.044
298.15 K, x1 = 0.2043	1274.8	3.064
298.15 K, x1 = 0.3056	1308	3.113
298.15 K, x1 = 0.4083	1343.4	3.19
298.15 K, x1 = 0.5093	1380.4	3.261
298.15 K, x1 = 0.6063	1418.1	3.31
298.15 K, x1 = 0.7068	1459.9	3.338
298.15 K, x1 = 0.8042	1503.4	3.351
298.15 K, x1 = 0.9024	1550.5	3.348
303.15 K, x1 = 0.1043	1225	2.516
303.15 K, x1 = 0.2043	1256.1	2.551
303.15 K, x1 = 0.3056	1289.2	2.617
303.15 K, x1 = 0.4083	1324.7	2.713
303.15 K, x1 = 0.5093	1361.9	2.8
303.15 K, x1 = 0.6063	1400	2.869
303.15 K, x1 = 0.7068	1442.6	2.918
303.15 K, x1 = 0.8042	1487.3	2.949
303.15 K, x1 = 0.9024	1536	2.966
308.15 K, x1 = 0.1043	1204.5	2.126
308.15 K, x1 = 0.2043	1235.7	2.167
308.15 K, x1 = 0.3056	1268.9	2.239
308.15 K, x1 = 0.4083	1304.5	2.339
308.15 K, x1 = 0.5093	1341.9	2.435
308.15 K, x1 = 0.6063	1380.6	2.512
308.15 K, x1 = 0.7068	1424.4	2.571
308.15 K, x1 = 0.8042	1470.5	2.611
308.15 K, x1 = 0.9024	1521	2.639
313.15 K, x1 = 0.1043	1185.6	1.802
313.15 K, x1 = 0.2043	1216.2	1.848
313.15 K, x1 = 0.3056	1249.3	1.927
313.15 K, x1 = 0.4083	1285.3	2.035
313.15 K, x1 = 0.5093	1323.1	2.138
313.15 K, x1 = 0.6063	1362.1	2.224
313.15 K, x1 = 0.7068	1406.8	2.291
313.15 K, x1 = 0.8042	1453.9	2.338
313.15 K, x1 = 0.9024	1506.1	2.375
318.15 K, x1 = 0.1043	1167.6	1.543
318.15 K, x1 = 0.2043	1197.6	1.593
318.15 K, x1 = 0.3056	1230.7	1.677
318.15 K, x1 = 0.4083	1266.9	1.791
318.15 K, x1 = 0.5093	1305	1.903
318.15 K, x1 = 0.6063	1344.2	1.998
318.15 K, x1 = 0.7068	1389.5	2.072
318.15 K, x1 = 0.8042	1437.6	2.129
318.15 K, x1 = 0.9024	1491.3	2.175
